| SMILES | melting point |
| --- | --- |
| COC(=O)c1nc(-c2ccc3c(c2)CCC3)cc(N)c1Cl [Compound 75, Methyl 4-amino-3-chloro-6-(5-indanyl)pyridine-2-carboxylate] | 165 to 166 °C |
| COC(=O)c1nc(-c2ccc3c(c2)CCO3)cc(N)c1Cl [Compound 77, Methyl 4-amino-3-chloro-6-(2,3-dihydro-5-benzofuranyl)pyridine-2-carboxylate] | 143 °C |
| COC(=O)c1nc(-c2cc(Cl)c(C)cc2F)cc(NC(C)=O)c1Cl [Compound 78, Methyl 4-acetamido-3-chloro-6-(5-chloro-2-fluoro-4-methylphenyl)pyridine-2-carboxylate] | 187 to 195 °C |
| COC(=O)c1nc(-c2cc(Cl)c(C)cc2F)cc(N)c1Cl [Compound 79, Methyl 4-amino-3-chloro-6-(5-chloro-2-fluoro-4-methylphenyl)pyridine-2-carboxylate] | 108 to 110 °C |
| COC(=O)c1nc(-c2ccc(OC)c(C)c2)cc(N)c1Cl [Compound 80, Methyl 4-amino-3-chloro-6-(4-methoxy-3-methylphenyl)pyridine-2-carboxylate] | 158 °C |
| COC(=O)c1nc(-c2cc(OC)ccc2OC)cc(NC(C)=O)c1Cl [Compound 81, Methyl 4-acetamido-3-chloro-6-(2,5-dimethoxyphenyl)pyridine-2-carboxylate] | 124 to 125 °C |
| COC(=O)c1nc(-c2ccc(C)cc2)cc(NC(C)=O)c1Cl [Compound 83, Methyl 4-acetamido-3-chloro-6-(4-methylphenyl)pyridine-2-carboxylate] | 156 °C |
| COC(=O)c1nc(-c2cnn(C)c2)cc(NC(C)=O)c1Cl [Compound 87, Methyl 4-acetamido-3-chloro-6-(1-methyl-1H-pyrazol-4-yl)pyridine-2-carboxylate] | 177 to 178 °C |
| COC(=O)c1nc(-c2cc3ccccc3o2)cc(N)c1Cl [Compound 96, Methyl 4-amino-3-chloro-6-(2-benzofuranyl)pyridine-2-carboxylate] | 182 to 183 °C |
| COC(=O)c1nc(-c2cc3ccccc3s2)cc(NC(C)=O)c1Cl [Compound 97, Methyl 4-acetamido-3-chloro-6-(2-benzothienyl)pyridine-2-carboxylate] | 184 to 185 °C |
| COC(=O)c1nc(-c2c(C)noc2C)cc(N)c1Cl [Compound 100, Methyl 4-amino-3-chloro-6-(3,5-dimethyl-4-isoxazolyl)pyridine-2-carboxylate] | 143 °C |
| COC(=O)c1nc(-c2ccsc2)cc(NC(C)=O)c1Cl [Compound 101, Methyl 4-acetamido-3-chloro-6-(3-thienyl)pyridine-2-carboxylate] | 133 °C |
| COC(=O)c1nc(-c2cccnc2)cc(N)c1Cl [Compound 102, Methyl 4-amino-3-chloro-6-(3-pyridyl)pyridine-2-carboxylate] | 144 to 146 °C |
| COC(=O)c1nc(-c2nccs2)cc(NC(C)=O)c1Cl [Compound 103, Methyl 4-acetamido-3-chloro-6-(2-thiazolyl)pyridine-2-carboxylate] | 187 to 188 °C |
| COC(=O)c1nc(-c2ccco2)c(Cl)c(N)c1Cl [Compound 104, Methyl 4-amino-3,5-dichloro-6-(2-furanyl)pyridine-2-carboxylate] | 116 to 117 °C |
| COC(=O)c1nc(-c2cccs2)c(Cl)c(N)c1Cl [Compound 105, Methyl 4-amino-3,5-dichloro-6-(2-thienyl)pyridine-2-carboxylate] | 132 °C |

Continued, values first:

| melting point | SMILES |
| --- | --- |
| 138 to 139 °C | COC(=O)c1nc(-c2cccs2)cc(N)c1Cl [Compound 106, Methyl 4-amino-3-chloro-6-(2-thienyl)pyridine-2-carboxylate] |
| 185 to 187 °C | COC(=O)c1nc(-c2ccnc(OC)c2)cc(N)c1Cl [Compound 107, Methyl 4-amino-3-chloro-6-(6-methoxy-4-pyridinyl)pyridine-2-carboxylate] |
| 251 to 252 °C | COC(=O)c1nc(-c2ccc(O)nc2)cc(N)c1Cl [Compound 108, Methyl 4-amino-3-chloro-6-(6-hydroxy-3-pyridinyl)pyridine-2-carboxylate] |
| 142 to 145 °C | COC(=O)c1nc(-c2ccccn2)cc(N)c1Cl [Compound 109, Methyl 4-amino-3-chloro-6-(2-pyridinyl)pyridine-2-carboxylate] |
| 117 °C | COC(=O)c1nc(-c2ccco2)cc(N)c1Cl [Compound 110, Methyl 4-amino-3-chloro-6-(2-furanyl)pyridine-2-carboxylate] |
| 185 to 187 °C | COC(=O)c1nc(-c2nccs2)c(F)c(N)c1Cl [Compound 113, Methyl 4-amino-3-chloro-5-fluoro-6-(2-thiazolyl)pyridine-2-carboxylate] |
| 178 to 185 °C | COC(=O)c1nc(-c2cncnc2)cc(NC(C)=O)c1Cl [Compound 117, Methyl 4-acetamido-3-chloro-6-(5-pyrimidinyl)pyridine-2-carboxylate] |
| 129 °C | COC(=O)c1nc(-c2ccsc2)cc(N)c1Cl [Compound 122, Methyl 4-amino-3-chloro-6-(3-thienyl)pyridine-2-carboxylate] |
| 195 to 197 °C | COC(=O)c1nc(-c2nccs2)cc(N)c1Cl [Compound 123, Methyl 4-amino-3-chloro-6-(2-thiazolyl)pyridine-2-carboxylate] |
| 174 to 176 °C | COC(=O)c1nc(-c2cnn(C)c2)cc(N)c1Cl [Compound 124, Methyl 4-amino-3-chloro-6-(1-methyl-1H-pyrazol-4-yl)pyridine-2-carboxylate] |
| 177 to 178 °C | COC(=O)c1nc(-c2cc3ccccc3s2)cc(N)c1Cl [Compound 125, Methyl 4-amino-3-chloro-6-(2-benzothienyl)pyridine-2-carboxylate] |
| 195 °C | COC(=O)c1nc(-c2cncnc2)cc(N)c1Cl [Compound 126, Methyl 4-amino-3-chloro-6-(5-pyrimidinyl)pyridine-2-carboxylate] |
| 135 °C | Nc1c(Cl)c(C(=O)O)nc(-c2ccccc2)c1Cl [Compound 133, 4-Amino-3,5-dichloro-6-(phenyl)pyridine-2-carboxylic acid] |
| 139 to 140 °C (dec.) | COc1ccc(-c2nc(C(=O)O)c(Cl)c(N)c2Cl)cc1 [Compound 134, 4-Amino-3,5-dichloro-6-(4-methoxyphenyl)pyridine-2-carboxylic acid] |
| 180 to 181 °C (dec.) | Nc1cc(-c2ccccc2)nc(C(=O)O)c1Cl [Compound 135, 4-Amino-3-chloro-6-(phenyl)pyridine-2-carboxylic acid] |
| 196 to 197 °C | Nc1cc(-c2ccccc2Cl)nc(C(=O)O)c1Cl [Compound 140, 4-Amino-3-chloro-6-(2-chlorophenyl)pyridine-2-carboxylic acid] |
| 121 to 122 °C | Nc1cc(-c2ccccc2F)nc(C(=O)O)c1Cl [Compound 142, 4-Amino-3-chloro-6-(2-fluorophenyl)pyridine-2-carboxylic acid] |
| 177 to 178 °C | CC(=O)c1ccc(-c2cc(N)c(Cl)c(C(=O)O)n2)cc1 [Compound 144, 4-Amino-3-chloro-6-(4-acetylphenyl)pyridine-2-carboxylic acid] |

Source: patent US6784137B2, “6-aryl-4-aminopicolinates and their use as herbicides” (Dow AgroSciences LLC, priority 2001, dated 2004)
